For series [1], the target named is T1, hGR (Homo sapiens, UniProt P04150).
T1 construct: expressed in transfected cells; host or cells: HEK 293T
T1 sequence (P04150 1-777): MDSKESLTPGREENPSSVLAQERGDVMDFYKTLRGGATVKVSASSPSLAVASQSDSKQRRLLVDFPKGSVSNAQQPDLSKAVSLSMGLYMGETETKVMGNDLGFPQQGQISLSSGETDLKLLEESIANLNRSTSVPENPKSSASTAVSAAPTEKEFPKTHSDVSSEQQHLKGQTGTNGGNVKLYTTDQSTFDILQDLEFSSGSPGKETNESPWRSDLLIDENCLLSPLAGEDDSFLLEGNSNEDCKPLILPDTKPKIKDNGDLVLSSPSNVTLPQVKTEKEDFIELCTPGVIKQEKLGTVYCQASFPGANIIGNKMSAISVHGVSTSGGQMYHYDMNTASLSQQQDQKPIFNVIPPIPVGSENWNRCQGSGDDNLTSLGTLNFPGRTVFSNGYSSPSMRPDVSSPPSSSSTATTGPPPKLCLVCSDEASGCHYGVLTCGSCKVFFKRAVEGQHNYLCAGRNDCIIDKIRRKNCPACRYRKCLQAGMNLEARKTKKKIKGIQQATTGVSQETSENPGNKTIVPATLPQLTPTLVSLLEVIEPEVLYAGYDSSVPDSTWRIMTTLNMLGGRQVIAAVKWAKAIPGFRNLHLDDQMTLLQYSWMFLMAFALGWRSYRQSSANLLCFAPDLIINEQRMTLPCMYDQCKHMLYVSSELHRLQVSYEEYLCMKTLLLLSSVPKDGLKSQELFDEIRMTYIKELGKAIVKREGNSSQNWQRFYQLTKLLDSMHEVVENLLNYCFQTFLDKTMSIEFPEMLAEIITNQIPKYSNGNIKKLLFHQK
The experiment in a line: APRn selectivity: transactivation in HEK293T cells transiently expressing hGR. It is filed as cell-based. Particulars: for GR Antagonist efficacy (%): dexamethasone 10^−9 M; for Emax: HEK-293T, read-out: GR Agonist efficacy (%). Here is the method: Measurement of the APRn Selectivity in HEK 293T.
The HEK-293T cells were cultured and transfected according to the method described above for the PR transactivation assays. The expression vectors pcDNA-hAR, kindly provided by G. A. Coetzee, pchGR (Hellal-Levy, C et al. FEBS Lett 1999, 464, 9), and pchMR (Fagart, J. et al. EMBO J. 1998, 17, 3317) were used for studying the ability of APRn to activate or inactivate the AR, GR and MR, respectively. For each transfection assays, 2 μg of the expression vector was used together with 7 μg of the GRE2-Luc reporter vector. Dihydrotestosterone (DHT), dexamethasone (Dex) and Aldosterone (Aldo) were selected as AR, GR and MR ligands, respectively. They were used at the concentration of 10^−9 M. The APRn agonist and antagonist efficacy for AR, GR and MR were measured as described above for PR. The results are the mean±SEM of three independent experiments.
Transfection assays were performed in HEK 293T cells by using expression vectors for the hAR, hGR and hMR and the GRE2-Luc reporter used for the PR transactivation assays.

Setting [2] is: HEK293T transiently expressing hGR, mean±SEM.

Where two headings read alike, the source gives them in different places.

For `C[C@@H]1CCC2C3CC=C4C[C@@H](F)CC[C@]4(C)C3CC[C@]2(C)[C@H]1F` (stereo partly drawn) [APR-19, 3β,17α-Difluoro-17α-methyl-D-Homo-pregn-5-ene], the “GR Antagonist efficacy (%)” value in series [1] (setting [2]) was −3.5 ± 1.4%. In addition, the Emax in series [1] worked out at 0.26 ± 0.05%.
Consider `CC#C[C@]1(O)CCC2C3CC[C@H]4C[C@@H](F)CC[C@]4(C)C3CC[C@@]21C` (stereo partly drawn) [APR-43, 3β-Fluoro-17α-(1-propynyl)-5α-androstan-17β-ol], for which the melting point was 139 to 140 °C. Also, the “GR Antagonist efficacy (%)” value in series [1] (setting [2]) is −9.0 ± 1.7%. The Emax in series [1] was 0.17 ± 0.05%.
Taken in the same sequence, the figures for `C[C@]12CCC3C(CC=C4C[C@@H](F)CC[C@@H]43)C1CCC2=O` (stereo partly drawn) [APR-47, 3β-Fluoro-19-nor-androst-5-en-17-one] were 102 to 103 °C, 1.5 ± 4.3% and 0.16 ± 0.02%.
With `CC#C[C@]1(O)CCC2C3CC[C@H]4CCCC[C@@H]4C3CC[C@@]21C` (stereo partly drawn) [APR-54, 17α-(1-Propynyl)-19-nor-5-androstan-17β-ol], in series [1] (setting [2]), the “GR Antagonist efficacy (%)” value is listed as −0.1 ± 3.3% and the Emax is 0.15 ± 0.02%.
The compound `CC(=O)[C@H]1CC[C@H]2[C@@H]3CC=C4C[C@@H](F)CC[C@]4(C)[C@H]3CC[C@]12C` [APR-16, 3β-Fluoropregn-5-en-20-one] had a melting point of 166 to 167 °C. In addition, in series [1] (setting [2]), the “GR Antagonist efficacy (%)” value amounted to 0.1 ± 2.2% and the Emax came out at 0.25 ± 0.02%.
Taken in the same sequence, the figures for `CC#C[C@]1(O)CCC2C3CC[C@H]4CCCC[C@]4(C)C3CC[C@@]21C` (stereo partly drawn) [APR-42, 17α-(1-Propynyl)-5α-androstan-17β-ol] were 150 to 151 °C, 4.4 ± 3.3% and 0.22 ± 0.07%.
In the case of `CC#C[C@]1(O)CCC2C3CC=C4C[C@@H](F)CC[C@@H]4C3CC[C@@]21C` (stereo partly drawn) [APR-51, 3β-Fluoro-17α-(1-propynyl)-19-nor-androst-5-en-17β-ol], the melting point was 72 to 73 °C. For the same compound, the “GR Antagonist efficacy (%)” value in series [1] (setting [2]) was found to be 19.3 ± 7.3%. Further, the Emax in series [1] was determined as 0.29 ± 0.08%.

By melting point is commonly meant the temperature, or range, at which the solid turns liquid.

(Values after US20130203718A1 (priority 2010, published 2013).)
